The values below come from US20250034200A1, “Prodrugs of Neurosteroid Analogs and Uses Thereof” (priority 2021, published 2025).

The structures appear in SMILES notation. Where a name gives a salt, the structure may show the parent alone.

Series [1] in a line: Aqueous stability assay (HPLC, pseudo first-order half-life). The class given is physicochemical. The following applies: for stability in the acidic aqueous mediums: pH 4.0 and 5.5.
Series [2] is described as follows: Plasma stability assay (LC-MS/MS). The format is in vitro ADME. The following applies: for formation of the corresponding oxime (progesterone C20-oxime) / half-life: human plasma; for half-life: 37° C., 3 μM, read-out: Plasma t1/2 (converted). An outline of the steps: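 Compound (3 μM final; 0.03% DMSO, up to 0.6% methanol) was incubated in human plasma at 37° C for up to 240 min, sampled at 0, 15, 30, 60, 120, 180 and 240 min in duplicate. Samples were quenched in cold acetonitrile or methanol with internal standard and quantified by LC-MS/MS (ESI+, MRM). Stability was derived from the slope of ln(% parent remaining) versus time.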

A short description of series [3]: Nephelometry (aqueous solubility). The following applies: DPBS with 1% DMSO, aqueous buffer, kinetic from dmso stock, DPBS pH 7.0-7.3, 1% DMSO, 25° C. The class given is physicochemical. From the text: Well A1 of the plate contained 100% DMSO.
Series [4] concerns rat disease model of acute TBI. Kind of series: Edema assay in rat model of acute TBI (controlled cortical impact). The format is in vivo. The following applies: for reduced brain edema: 10 mg/kg IM at 1 and 6 h post-TBI, edema at 24 h. How it is done:
A prodrug dose of 10 mg/kg was chosen and administered IM at 1 and 6 hours post-injury. Prodrug dosage is equimolar±5% with respective to the parent compound.
Subjects—Male SD rats weighing 250-350 g at the time of injury were used for the efficacy study, which was conducted in our facility at Emory University. The rats were maintained on a reverse 12:12 light-dark cycle at 22±1° C. with appropriate humidity levels. After one week of quarantine the rats were handled at least 3 times prior to surgery. This study was conducted in a facility approved by the American Association for the Accreditation of Laboratory Animal Care (AAALAC) in accordance with all National Institutes of Health guidelines. All experimental animal procedures were approved by the Emory University Institutional Animal Care and Use Committee.
Contusion Injury—Rats were anesthetized using isoflurane gas (5% induction, 1.5% maintenance, 700 mmHg N2O, 500 mmHg O2) and then mounted in a Kopf stereotaxic device (David Kopf Instruments, Tujunga, CA, USA). The scalp incision area was shaved and sterilized with Betadine® antiseptic and 70% isopropanol. Physiological parameters were monitored with pulse oximetry (SurgiVet model V3304): heart rate was maintained above ˜300 beats per minute and SpO2 kept above 90%. Core body temperature (˜37° C.) was maintained with a homeothermic heating blanket system (Harvard Apparatus, Holliston, MA, USA). Under aseptic conditions, a midline incision was made into the skin and fascia covering the skull. Cotton swabs were used to staunch and clean any fascial bleeding. […]
Treatment—Animals were randomly assigned to one of four treatment groups. […] Percent change in brain tissue water content was measured.
Edema Assay—Edema was measured at 24 h after surgery. […] The percent water content was calculated by [(wet wt-dry wt)/wet wt]×100. The percent difference in water content between the anterior peri-contusional and the posterior distal section was calculated for each sample by: [(anterior H2O %-posterior H2O %)/(posterior H2O %)]×100.

Series [5] is described as follows: Rat plasma pharmacokinetic study. Particulars: IV and IM routes.
Procedure: Test System—Healthy male Sprague Dawley rats (8-12 weeks old) weighing between 200 to 250 g were procured from Global, India. […] Temperature and humidity were maintained at 22±3° C. and 30-70%, respectively and illumination was controlled to give a sequence of 12 h light and 12 h dark cycle. Temperature and humidity were recorded by auto-controlled data logger system. All the animals were provided with laboratory rodent diet (Envigo Research private Ltd, Hyderabad). Reverse osmosis water treated with ultraviolet light was provided ad libitum.
Design—Rats (n=3 per treatment group, serial sampling) were administered a solution of either normal saline vehicle or test compound in normal saline at 2 mg/kg (IV) or 10 mg/kg (IM) with a dosing volume of 5 mL/kg (IV) or 1 mL/kg (IM).
Sample Collection—Blood samples (approximately 60 μL) were collected under light isoflurane anesthesia (Surgivet®) from retro orbital plexus from a set of three rats at 0.08, 0.25, 0.5, 1, 2, 4, 6, 8 and 10 h (IV) or 0.25, 0.5, 1, 2, 4, 6, 8 and 10 h (IM). Immediately after blood collection, plasma was harvested by centrifugation 4000 rpm, 10 min at 40° C. and samples were stored at −70±10° C. until bioanalysis.
Data Analysis—Concentrations of the test compound and its parent compound, progesterone C20-oxime, in rat plasma were determined by fit-for-purpose LC-MS/MS method by Sai Life Sciences. […] Cmax represents the mean observed maximum concentration of analyte. Tmax represents the average time at observed Cmax. Areas under the curve (AUC0-last) were calculated via the linear trapezoidal rule using GraphPad Prism v9.
Where [6] appears, read: acetate buffer pH 4.0, read-out: Acetate buffer (pH 4.0) t1/2 (converted).
Setting [7] is: acetate buffer pH 5.5, read-out: Acetate buffer (pH 5.5) t1/2 (converted).

With `CNCCN(C)C(=O)O/N=C(\C)[C@H]1CC[C@H]2[C@@H]3CCC4=CC(=O)CC[C@]4(C)[C@H]3CC[C@]12C` [32b, (E)-9-((8S,9S,10R,13S,14S,17S)-10,13-dimethyl-3-oxo-2,3,6,7,8,9,10,11,12,13,14,15,16,17-tetradecahydro-1H-cyclopenta[a]phenanthren-17-yl)-5-methyl-7-oxa-2,5,8-triazadec-8-en-6-one hydrochloride], the “PBS t1/2” value in series [1] (DPBS pH 7.0-7.3, 1 mg/mL, room temperature) came to 46.9 ± 0.8 h. In series [1] (setting [6]), the half-life was 96 days. The half-life in series [1] (setting [7]) is 80 days. The “stability in the acidic aqueous mediums” value in series [1] was “stable”. In series [2], the “stability in human plasma” value is “unstable”, the “formation of the corresponding oxime (progesterone C20-oxime)” value is listed as “observed” and the half-life was 1.5 h. The solubility at 90 min in series [3] was more than 750 µM. Further, the reduced brain edema in series [4] came to 31%.
With `C/C(=N\OC(=O)N(C)C[C@@H]1CCCN1)[C@H]1CCC2[C@@H]3CCC4=CC(=O)CC[C@]4(C)[C@H]3CC[C@@]21C.Cl` (stereo partly drawn) [32j, (8S,9S,10R,13S,17S)-10,13-dimethyl-17-((E)-1-(((methyl(((S)-pyrrolidin-2-yl)methyl)carbamoyl)oxy)imino)ethyl)-1,2,6,7,8,9,10,11,12,13,14,15,16,17-tetradecahydro-3H-cyclopenta[a]phenanthren-3-one hydrochloride], the half-life in series [1] (setting [6]) is 48 days; in series [1] (setting [7]), 2.4 days; in series [1] (buffer, DPBS pH 7.0-7.3, 1 mg/mL, room temperature, read-out: PBS t1/2 (converted)), 0.0792 ± 0.00417 days; in series [2], less than 0.1 h. In series [1], the “stability in the acidic aqueous mediums” value is recorded as “stable”. In addition, in series [2], the “stability in human plasma” value was “unstable”. Further, the “formation of the corresponding oxime (progesterone C20-oxime)” value in series [2] is recorded as “observed”. This compound also displayed a reduced brain edema in series [4] of 40%. For the same compound, in series [4] (10 mg/kg dose IM), the “reducing brain edema, comparison with EIDD-1723” value is reported as “equally efficacious”. In addition, the “formation of parent progesterone C20-oxime” value in series [5] was “rapid and extensive”.

The term solubility denotes the dissolved amount per volume that the medium holds. A higher solubility goes with much dissolved substance.
